Results from patent US9353076B2, “Crystal form of cabazitaxel and preparation method thereof” (Chongqing Taihao Pharmaceutical Co., Ltd., priority 2012, dated 2016).

Assay: Accelerated stability test for a novel crystalline form of Cabazitaxel
Assay type: physicochemical

With “4-acetoxy-2α-benzoyloxy-5β,20-epoxy-1-hydroxy-7β,10β-dimethoxy-9-oxo-11-taxadiene-13α-yl(2R,3S)-3-tert-butoxycarbonylamino-2-hydroxy-3-phenyl-propionate [crystalline form G of Cabazitaxel]” the “Content (%)” value (0 month) was 99.4%, the “Moisture (%)” value (0 month) was 1.92% and the “The other maximum individual impurity (%)” value (0 month) was 0.05%. The “Total impurity (%)” value (0 month) was 0.17%, the “Content (%)” value (1 month) was 99.4% and the “Moisture (%)” value (1 month) was 1.96%. For the same substance, the “The other maximum individual impurity (%)” value (1 month) was 0.05%, the “Total impurity (%)” value (1 month) was 0.16% and the “Content (%)” value (2 months) was 99.4%. The “Moisture (%)” value (2 months) was 1.99%, the “The other maximum individual impurity (%)” value (2 months) was 0.05% and the “Total impurity (%)” value (2 months) was 0.17%. The “Content (%)” value (3 months) was 99.3%, the “Moisture (%)” value (3 months) was 2.03% and the “The other maximum individual impurity (%)” value (3 months) was 0.05%. For the same substance, the “Total impurity (%)” value (3 months) was 0.16%, the “Content (%)” value (6 months) was 99.1% and the “Moisture (%)” value (6 months) was 2.09%. The “The other maximum individual impurity (%)” value (6 months) was 0.05% and the “Total impurity (%)” value (6 months) was 0.16%.

For “4-acetoxy-2α-benzoyloxy-5β,20-epoxy-1-hydroxy-7β,10β-dimethoxy-9-oxo-11-taxadiene-13α-yl(2R,3S)-3-tert-butoxycarbonylamino-2-hydroxy-3-phenyl-propionate [crystalline form I of Cabazitaxel]”, the “Content (%)” value (0 month) was 99.7%, the “Moisture (%)” value (0 month) was 0.45% and the “The other maximum individual impurity (%)” value (0 month) was 0.06%. The “Total impurity (%)” value (0 month) was 0.21%, the “Content (%)” value (1 month) was 99.6% and the “Moisture (%)” value (1 month) was 0.47%. The “The other maximum individual impurity (%)” value (1 month) was 0.06%, the “Total impurity (%)” value (1 month) was 0.20% and the “Content (%)” value (2 months) was 99.7%. For the same substance, the “Moisture (%)” value (2 months) was 0.50%, the “The other maximum individual impurity (%)” value (2 months) was 0.05% and the “Total impurity (%)” value (2 months) was 0.20%. For the same substance, the “Content (%)” value (3 months) was 99.6%, the “Moisture (%)” value (3 months) was 0.54% and the “The other maximum individual impurity (%)” value (3 months) was 0.06%. The “Total impurity (%)” value (3 months) was 0.21%, the “Content (%)” value (6 months) was 99.5% and the “Moisture (%)” value (6 months) was 0.51%. The “The other maximum individual impurity (%)” value (6 months) was 0.06% and the “Total impurity (%)” value (6 months) was 0.22%.

For “4-acetoxy-2α-benzoyloxy-5β,20-epoxy-1-hydroxy-7β,10β-dimethoxy-9-oxo-11-taxadiene-13α-yl(2R,3S)-3-tert-butoxycarbonylamino-2-hydroxy-3-phenyl-propionate [crystalline form J of Cabazitaxel]”, the “Content (%)” value (0 month) was 99.8%, the “Moisture (%)” value (0 month) was 0.40% and the “The other maximum individual impurity (%)” value (0 month) was 0.08%. The “Total impurity (%)” value (0 month) was 0.25%, the “Content (%)” value (1 month) was 99.7% and the “Moisture (%)” value (1 month) was 0.44%. For the same substance, the “The other maximum individual impurity (%)” value (1 month) was 0.07%, the “Total impurity (%)” value (1 month) was 0.25% and the “Content (%)” value (2 months) was 99.6%. For the same substance, the “Moisture (%)” value (2 months) was 0.46%, the “The other maximum individual impurity (%)” value (2 months) was 0.07% and the “Total impurity (%)” value (2 months) was 0.28%. The “Content (%)” value (3 months) was 99.6%, the “Moisture (%)” value (3 months) was 0.50% and the “The other maximum individual impurity (%)” value (3 months) was 0.08%. The “Total impurity (%)” value (3 months) was 0.26%, the “Content (%)” value (6 months) was 99.5% and the “Moisture (%)” value (6 months) was 0.48%. For the same substance, the “The other maximum individual impurity (%)” value (6 months) was 0.08% and the “Total impurity (%)” value (6 months) was 0.28%.
